This note sets out measurements from patent US20220306695A1, “COMPSTATIN ANALOGUES AND THEIR MEDICAL USES” (priority 2019, published 2022).

Read-outs that look alike come from different tables or passages of the source. Starred links: 1 amine or outer side, 2 acyl side, 3 side chain; linkers in the order of their positions; H or OH if unused. Positions of bridges follow the written chain, without caps; N, C: chain ends. Non-standard residues stand in square brackets, D forms with d. Residues, ends and D or L forms follow the SMILES beside them. Groups on a side chain read outwards from the residue. *: point of attachment. C20 diacid = O=C(O)CCCCCCCCCCCCCCCCCCC(=O)*; Trp(1-Me) = Cn1cc(C[C@H](N)C(=O)O)c2ccccc21; Abu(4-yl) = O=C([C@H](CC[*:3])N[*:1])[*:2]; C18 diacid = O=C(O)CCCCCCCCCCCCCCCCC(=O)*; γGlu = O=C(O)[C@H](CCC(=O)[*:2])N[*:1]; NMeI = CC[C@H](C)[C@H](NC)C(=O)O; AEEA = NCCOCCOCC(=O)O; Sar = CNCC(=O)O A value given as a limit tells only on which side of the number the result lay.

Data set [1] is described as follows: Solubility test at 10 mg/mL (visual inspection and light scattering). The data set is classed as physicochemical.
Data set [2] relates to classical complement pathway. The experiment in a line: In vitro haemolysis assay (inhibition of classical complement pathway). It counts as cell-based, human. In a few lines: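 Serially diluted compound (9 points) was preincubated 15 min at room temperature with diluted human serum, titrated per batch to give 70-90% maximal haemolysis, in Tris/casein buffer pH 7.4 with Mg2+/Ca2+. Antibody-sensitized sheep erythrocytes were then added for 30 min at 37° C, and the reaction was stopped with EDTA. Haemolysis was read at A405, with IC50 from 4PL fit.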

A further data set addresses T1, Human C3 (Homo sapiens, UniProt P01024).
T1 construct: purchased Complement tech A1 13c (so in the source)
The data set can be described thus: Affinity measurement by surface plasmon resonance (SPR) with immobilized C3. The data set is classed as binding. The note with it: Table 7; immobilized C3, 25° C., pH 7.4. How it is done: Surface plasmon resonance (SPR) was used to characterize peptides with respect to their binding affinity (Kd) for C3. Human C3 (Complement tech cat #A1 13c) was immobilised on individual flow cells of CM5 sensor chips (GE Healthcare) using standard amine coupling to a density of approximately 3000 resonance units (RU) in a buffer consisting of 10 mM phosphate pH 7.4, 150 mM NaCl, 0.05% Tween20. For interaction experiments a multi-cycle experiment approach was used and performed using either a Biacore™ T200 or Biacore™ X100 instrument (GE Healthcare) at 25° C. Peptides were injected in increasing concentration series (5-8 different concentrations) for 60-120 s at a flow rate of 30 μL/min in a buffer consisting of 10 mM Tris buffer at pH 7.4, with 150 mM NaCl and 0.05% Tween20. This was followed by a dissociation period for up to 10 min. […] Sensorgrams were double-referenced (reference surface, blanks) prior to analysis of the kinetic profiles by globally fitting data to a 1:1 Langmuir binding model to obtain association and dissociation rates for calculation of the equilibrium dissociation constant Kd. Each peptide was tested at in at least 2 independent experiments.
A general note: SPR reads the build-up and loss of mass on a sensor chip optically.

Setting [3] is: Table 3, human serum, sensitized sheep red blood cells, read-out: IC50[nM], in vitro analysis of inhibition of hemolysis.
Where [4] appears, read: Table 4, valine 3 versus isoleucine 3 pairs, read-out: CP hemolysis IC50.

The IC50 is the concentration that gives 50% inhibition. As usually defined, the Kd is the equilibrium constant for the complex coming apart. With `CC[C@H](C)[C@@H]1NC(=O)[C@@H](NC(=O)[C@H](Cc2ccccc2)NC(=O)[C@H](C)NC(=O)[C@H](CO)NC(=O)CNC(=O)[C@H](CCC(=O)O)NC(C)=O)CSSC[C@@H](C(=O)N(C)CC(=O)N[C@@H](CCC(=O)O)C(N)=O)NC(=O)[C@H](CCCNC(=N)N)NC(=O)[C@H](Cc2c[nH]cn2)NC(=O)[C@H](CCC(=O)O)NC(=O)CNC(=O)[C@H](Cc2c[nH]c3ccccc23)NC(=O)[C@H](CC(=O)O)NC(=O)[C@H](CCC(N)=O)NC(=O)[C@H](Cc2cn(C)c3ccccc23)NC1=O` [Compound 53] (Ac-EGSAFCI[Trp(1-Me)]QDWGEHRC[Sar]E-NH2; disulfide 6-16), in data set [1] (10 mg/mL compound in 100 mM acetate pH 4), the “Solubility, Condition 1 Acetate pH 4” value was “− (denotes lack of solubility at the given condition, as UV absorbance at 340 nm exceeds 0.1 AU and/or it is visibly turbid or contains particles.)”. For the same compound, the “Solubility, Condition 2 Acetate pH 5” value in data set [1] (10 mg/mL compound in 100 mM acetate pH 5) is given as “− (denotes lack of solubility at the given condition, as UV absorbance at 340 nm exceeds 0.1 AU and/or it is visibly turbid or contains particles.)”. Also, the “Solubility, Condition 3 Phosphate pH 6” value in data set [1] (10 mg/mL compound in 100 mM phosphate pH 6) is “+ (denotes solubility at the given condition, as determined by UV absorbance being less than 0.1 AU at 340 nm and the sample being clear when manually inspected.)”. Moreover, the “Solubility, Condition 4 Phosphate pH 7” value in data set [1] (10 mg/mL compound in 100 mM phosphate pH 7) was “+ (denotes solubility at the given condition, as determined by UV absorbance being less than 0.1 AU at 340 nm and the sample being clear when manually inspected.)”. For the same compound, the “Solubility, Condition 5 Phosphate pH 7.5” value in data set [1] (10 mg/mL compound in 100 mM phosphate pH 7.5) is “+ (denotes solubility at the given condition, as determined by UV absorbance being less than 0.1 AU at 340 nm and the sample being clear when manually inspected.)”. Further, the IC50 in data set [2] (setting [3]) is < 100 nM. Further, the Kd on Human C3 was found to be 1.4 nM.

`CC[C@H](C)[C@@H]1NC(=O)[C@@H](NC(=O)[C@H](Cc2ccccc2)NC(=O)[C@H](CCC(=O)O)NC(=O)[C@H](CO)NC(C)=O)CSSC[C@@H](C(=O)N(C)CC(=O)N[C@@H](CCC(=O)O)C(=O)NCCOCCOCC(=O)NCCOCCOCC(=O)N[C@@H](CCCCNC(=O)CC[C@H](NC(=O)CNC(=O)CC[C@H](NC(=O)CCCCCCCCCCCCCCCCC(=O)O)C(=O)O)C(=O)O)C(N)=O)NC(=O)[C@H](CCCNC(=N)N)NC(=O)[C@H](Cc2c[nH]cn2)NC(=O)[C@H](CCC(=O)O)NC(=O)CN(C)C(=O)[C@H](Cc2c[nH]c3ccccc23)NC(=O)[C@H](CC(=O)O)NC(=O)[C@H](CCC(N)=O)NC(=O)[C@H](Cc2cn(C)c3ccccc23)NC1=O` [Compound 144, Ac-SEFC(1)I[1-Me-Trp]QDW[Sar]EHRC(1)[Sar]E[Peg3][Peg3]-K([17-carboxy-heptadecanoyl][γGlu]G[γGlu])-NH2] (Ac-SEFCI[Trp(1-Me)]QDW[Sar]EHRC[Sar]E[AEEA][AEEA]K([γGlu-Gly-γGlu-C18 diacid])-NH2; disulfide 4-14): the IC50 in data set [2] (setting [3]) is < 100 nM. Besides, on Human C3, binding was put at a Kd of 1.5 nM.

For the compound `CC[C@H](C)[C@H](NC(C)=O)C(=O)N[C@H]1CSSC[C@@H](C(=O)N[C@@H](CO)C(N)=O)NC(=O)[C@H](CCCNC(=N)N)NC(=O)[C@H](Cc2c[nH]cn2)NC(=O)[C@H](CCC(=O)O)NC(=O)CNC(=O)[C@H](Cc2c[nH]c3ccccc23)NC(=O)[C@H](CC(=O)O)NC(=O)[C@H](CCC(N)=O)NC(=O)[C@H](Cc2c[nH]c3ccccc23)NC(=O)[C@H]([C@@H](C)CC)NC1=O` [Compound 21] (Ac-ICIWQDWGEHRCS-NH2; disulfide 2-12), the figures for the IC50 in data set [2] (setting [3]) and in data set [2] (setting [4]) were < 100 nM and 77 nM, respectively. This compound also yielded a Kd at Human C3 of 16 nM.

Consider `CC[C@H](C)[C@@H]1NC(=O)[C@@H](NC(=O)[C@H](Cc2ccccc2)NC(=O)[C@H](CCC(=O)O)NC(=O)[C@H](CO)NC(C)=O)CCSC[C@@H](C(=O)N(C)CC(=O)N[C@@H](CCC(=O)O)C(=O)NCC(=O)N[C@@H](CCC(=O)O)C(=O)NCCOCCOCC(=O)N[C@@H](CCC(=O)O)C(=O)N[C@@H](CO)C(=O)N[C@@H](CCCCNC(=O)CC[C@H](NC(=O)CNC(=O)CC[C@H](NC(=O)CCCCCCCCCCCCCCCCC(=O)O)C(=O)O)C(=O)O)C(N)=O)NC(=O)[C@H](CCCNC(=N)N)NC(=O)[C@H](Cc2c[nH]cn2)NC(=O)[C@H](CCC(=O)O)NC(=O)CN(C)C(=O)[C@H](Cc2c[nH]c3ccccc23)NC(=O)[C@H](CC(=O)O)NC(=O)[C@H](CCC(N)=O)NC(=O)[C@H](Cc2cn(C)c3ccccc23)NC1=O` [Compound 166, Ac-SEFhC(1)I[1-Me-Trp]QDW[Sar]EHRA(1)[Sar]EGE[Peg3]ES-K([17-carboxy-heptadecanoyl][γGlu]G[γGlu])-NH2] (Ac-SEF[Abu(4-yl)]I[Trp(1-Me)]QDW[Sar]EHRC[Sar]EGE[AEEA]ESK([γGlu-Gly-γGlu-C18 diacid])-NH2; thioether 4-14), for which the IC50 in data set [2] (setting [3]) is < 100 nM. The compound further gave a Kd on Human C3 of 6.5 nM.

In the case of `CC[C@H](C)[C@@H]1NC(=O)[C@@H](NC(=O)[C@H](Cc2ccccc2)NC(=O)[C@H](CCC(=O)O)NC(=O)[C@H](CO)NC(C)=O)CSSC[C@@H](C(=O)N(C)CC(=O)N[C@@H](CCC(=O)O)C(=O)NCC(=O)N[C@@H](CCC(=O)O)C(=O)NCCOCCOCC(=O)NCCOCCOCC(=O)N[C@@H](CCCCNC(=O)CC[C@H](NC(=O)CNC(=O)CC[C@H](NC(=O)CCCCCCCCCCCCCCCCCCC(=O)O)C(=O)O)C(=O)O)C(N)=O)NC(=O)[C@H](CCCNC(=N)N)NC(=O)[C@H](Cc2c[nH]cn2)NC(=O)[C@H](CCC(=O)O)NC(=O)CNC(=O)[C@H](Cc2c[nH]c3ccccc23)NC(=O)[C@H](CC(=O)O)NC(=O)[C@H](CCC(N)=O)NC(=O)[C@H](Cc2cn(C)c3ccccc23)NC1=O` [Compound 128] (Ac-SEFCI[Trp(1-Me)]QDWGEHRC[Sar]EGE[AEEA][AEEA]K([γGlu-Gly-γGlu-C20 diacid])-NH2; disulfide 4-14), the IC50 in data set [2] (setting [3]) is < 100 nM. Besides, the Kd on Human C3 stood at 6.5 nM.

Consider `CC[C@H](C)[C@H](NC(=O)[C@H](N)Cc1ccc(O)cc1)C(=O)N[C@H]1CSSC[C@@H](C(=O)N(C)[C@H](C(N)=O)[C@@H](C)CC)NC(=O)[C@H](CCCNC(=N)N)NC(=O)[C@H](Cc2c[nH]cn2)NC(=O)[C@H](C)NC(=O)CN(C)C(=O)[C@H](Cc2c[nH]c3ccccc23)NC(=O)[C@H](CC(=O)O)NC(=O)[C@H](CCC(N)=O)NC(=O)[C@H](Cc2cn(C)c3ccccc23)NC(=O)[C@H]([C@@H](C)CC)NC1=O` [Compound 48, H-{d}Y1C(1)I[1-Me-Trp]QDW[Sar]AHRC(1)[N-Me-Ile]-NH2] (H-[dY]ICI[Trp(1-Me)]QDW[Sar]AHRC[NMeI]-NH2; disulfide 3-13), for which the IC50 in data set [2] (setting [3]) was < 100 nM. The compound further displayed a Kd on Human C3 of 0.12 nM.

As to `CC[C@H](C)[C@H](NC(C)=O)C(=O)N[C@H]1CSSC[C@@H](C(=O)N[C@H](C(N)=O)[C@@H](C)O)NC(=O)[C@H](CCCNC(=N)N)NC(=O)[C@H](Cc2c[nH]cn2)NC(=O)[C@H](CCC(=O)O)NC(=O)CNC(=O)[C@H](Cc2c[nH]c3ccccc23)NC(=O)[C@H](CC(=O)O)NC(=O)[C@H](CCC(N)=O)NC(=O)[C@H](Cc2c[nH]c3ccccc23)NC(=O)[C@H]([C@@H](C)CC)NC1=O` [Compound 2] (Ac-ICIWQDWGEHRCT-NH2; disulfide 2-12), the half-inhibitory concentration (IC50) in data set [2] (setting [3]) is < 100 nM; in data set [2] (setting [4]) it was 94 nM; in data set [2] (Table 5, different residues at position 3 of Ac-IC(1)XWQDWGEHRC(1)T-NH2, read-out: IC50, CP hemolysis), < 100 nM. On Human C3, this compound came in with a dissociation constant Kd of 16 nM.

With `CC[C@H](C)[C@@H]1NC(=O)[C@@H](NC(=O)[C@H](Cc2ccccc2)NC(=O)[C@H](CCC(=O)O)NC(=O)[C@H](CO)NC(C)=O)CSCC[C@@H](C(=O)N[C@H](C(=O)NCC(=O)N[C@@H](C)C(=O)N[C@@H](CCC(=O)O)C(=O)N[C@@H](CO)C(N)=O)[C@@H](C)O)NC(=O)[C@H](CCCNC(=N)N)NC(=O)[C@H](Cc2c[nH]cn2)NC(=O)[C@H](CCC(=O)O)NC(=O)CNC(=O)[C@H](Cc2c[nH]c3ccccc23)NC(=O)[C@H](CC(=O)O)NC(=O)[C@H](CCC(N)=O)NC(=O)[C@H](Cc2cn(C)c3ccccc23)NC1=O` [Compound 151, Ac-SEFA(1)I[1-Me-Trp]QDWGEHRhC(1)TGAES-NH2] (Ac-SEFCI[Trp(1-Me)]QDWGEHR[Abu(4-yl)]TGAES-NH2; thioether 4-14), the IC50 in data set [2] (setting [3]) was < 100 nM. Besides, binding at Human C3 was characterised by a dissociation constant (Kd) of 1.4 nM.

As to `CC[C@H](C)[C@H](NC(C)=O)C(=O)N[C@H]1CSSC[C@@H](C(=O)N[C@H](C(N)=O)[C@@H](C)O)NC(=O)[C@H](CCCNC(=N)N)NC(=O)[C@H](Cc2c[nH]cn2)NC(=O)[C@H](CCC(=O)O)NC(=O)CNC(=O)[C@H](Cc2c[nH]c3ccccc23)NC(=O)[C@H](CC(=O)O)NC(=O)[C@H](CCC(N)=O)NC(=O)[C@H](Cc2cn(C)c3ccccc23)NC(=O)[C@H]([C@@H](C)CC)NC1=O` [Compound 4] (Ac-ICI[Trp(1-Me)]QDWGEHRCT-NH2; disulfide 2-12), the IC50 in data set [2] (setting [3]) was < 100 nM. Besides, at Human C3, the Kd amounted to 1.5 nM.
